In US20100040762A1 (Plantextrakt GmbH & Co. KG, priority 2006, published 2010):

Assays:
[1] = system: isolated rat brain hippocampal section preparation; experiment: isolated rat brain hippocampal section preparation, extra-cellular field potentials after electrical stimulation; conditions: in vitro, single stimulus excitation and theta-burst stimulation
Experimental: The measured field potentials were recorded after a single stimulus excitation and theta-burst stimulation.

[2] = system: Fischer-344 rats; experiment: tele-stereo-EEG on unrestrained rats; format: in vivo, rat; conditions: oral administration; frontal cortex, hippocampus, striatum, reticular formation
Experimental: Supplementing in-vivo experiments on unrestrained rats by means of quantitative detection of the electric brain activity (tele-stereo-EEG). Observed were adult, unrestrained Fischer-344 rats with implanted 4 bipolar concentric brain electrodes. A continuous in-vivo analysis of the electric field potential (tele-stereo-EEG) of the frontal cortex, hippocampus, striatum, and reticular formation was performed analogous to Dimpfel et. al 1986. Additionally, the mobility of the rats was measured using a video tracking system by GJB […] GmbH, […], Germany. […] The “tele-stereo-EEG” model on unrestrained rats was chosen as the in-vivo model to validate results that were obtained following the rat-hippocampus in-vitro experiments, in particular the crossing of the blood-brain barrier for the described substances.

Row | SMILES | influence on hippocampal electrical activity [1] | electric field potentials (tele-stereo-EEG) [2]
1 | N[C@@H](CCC(=O)O)C(=O)O [Glutamic acid, glutamic acid] | stimulating substances | 
2 | CCNC(=O)CC[C@H](N)C(=O)O [theanine, 5-N-ethyl-L-glutamine] | opposite effect | principally contribute to the measured results
3 | O=C(O[C@@H]1C[C@@](O)(C(=O)O)C[C@@H](O)[C@@H]1O)c1cc(O)c(O)c(O)c1 [theogallin, 5-galloyl quinic acid] | stimulating substances | principally contribute to the measured results
4 | O=C(O)[C@]1(O)C[C@@H](O)[C@@H](O)[C@H](O)C1 [quinic acid] | stimulating substances | principally contribute to the measured results
